Columns and labels:
Rattus norvegicus [1] = test: Distribution of radio activity in tissues of unfasted male rats was measured at 120 min of time in kidney after intravenous administration; format: ADME, organism-based; conditions: in vivo, 2 h
Rattus norvegicus [2] = test: Distribution of radio activity in tissues of unfasted male rats was measured as regional uptake at 60 min of time in striatum after intravenous administration; format: ADME, organism-based; conditions: in vivo, 1 h
Rattus norvegicus [3] = test: Distribution of radio activity in tissues of unfasted male rats was measured as regional uptake at 120 min of time in hippocampus after intravenous administration; format: ADME, organism-based; conditions: in vivo, 2 h
Rattus norvegicus [4] = test: Distribution of radio activity in tissues of unfasted male rats was measured at 60 min of time in skin after intravenous administration; format: ADME, organism-based; conditions: in vivo, 1 h
Rattus norvegicus [5] = test: Distribution of radio activity in tissues of unfasted male rats was measured as regional uptake at 30 min of time in cerebellum after intravenous administration; format: ADME, organism-based; conditions: in vivo, 0.5 h
Rattus norvegicus [6] = test: Distribution of radio activity in tissues of unfasted male rats was measured at 30 min of time in spleen after intravenous administration; format: ADME, organism-based; conditions: in vivo, 0.5 h
Rattus norvegicus [7] = test: Distribution of radio activity in tissues of unfasted male rats was measured at 2 min of time in liver after intravenous administration; format: ADME, organism-based; conditions: in vivo
Rattus norvegicus [8] = test: Distribution of radio activity in tissues of unfasted male rats was measured at 60 min of time in thyroid after intravenous administration; format: ADME, organism-based, Thyroid gland; conditions: in vivo, 1 h
Rattus norvegicus [9] = test: Distribution of radio activity in tissues of unfasted male rats was measured at 120 min of time in brain after intravenous administration; format: ADME, organism-based; conditions: in vivo, 2 h
Rattus norvegicus [10] = test: Distribution of radio activity in tissues of unfasted male rats was measured at 120 min of time in muscle after intravenous administration; format: ADME, organism-based, Muscle tissue; conditions: in vivo, 2 h
Rattus norvegicus [11] = test: Distribution of radio activity in tissues of unfasted male rats was measured at 120 min of time in liver after intravenous administration; format: ADME, organism-based; conditions: in vivo, 2 h
Rattus norvegicus [12] = test: Distribution of radio activity in tissues of unfasted male rats was measured as regional uptake at 2 min of time in hippocampus after intravenous administration; format: ADME, organism-based; conditions: in vivo
Rattus norvegicus [13] = test: Distribution of radio activity in tissues of unfasted male rats was measured at 2 min of time in kidney after intravenous administration; format: ADME, organism-based; conditions: in vivo
Rattus norvegicus [14] = test: Distribution of radio activity in tissues of unfasted male rats was measured at 30 min of time in skin after intravenous administration; format: ADME, organism-based; conditions: in vivo, 0.5 h
Rattus norvegicus [15] = test: Distribution of radio activity in tissues of unfasted male rats was measured as at 2 min of time in lung after intravenous administration; format: ADME, organism-based; conditions: in vivo
Rattus norvegicus [16] = test: Distribution of radio activity in tissues of unfasted male rats was measured at 60 min of time in brain after intravenous administration; format: ADME, organism-based; conditions: in vivo, 1 h
Rattus norvegicus [17] = test: Distribution of radio activity in tissues of unfasted male rats was measured at 2 min of time in spleen after intravenous administration; format: ADME, organism-based; conditions: in vivo
Rattus norvegicus [18] = test: Distribution of radio activity in tissues of unfasted male rats was measured at 60 min of time in muscle after intravenous administration; format: ADME, organism-based, Muscle tissue; conditions: in vivo, 1 h
Rattus norvegicus [19] = test: Distribution of radio activity in tissues of unfasted male rats was measured at 30 min of time in muscle after intravenous administration; format: ADME, organism-based, Muscle tissue; conditions: in vivo, 0.5 h
Rattus norvegicus [20] = test: Distribution of radio activity in tissues of unfasted male rats was measured at 60 min of time in spleen after intravenous administration; format: ADME, organism-based; conditions: in vivo, 1 h
Rattus norvegicus [21] = test: Distribution of radio activity in tissues of unfasted male rats was measured at 120 min of time in heart after intravenous administration; format: ADME, organism-based; conditions: in vivo, 2 h
Rattus norvegicus [22] = test: Distribution of radio activity in tissues of unfasted male rats was measured as regional uptake at 120 min of time in striatum after intravenous administration; format: ADME, organism-based; conditions: in vivo, 2 h
Rattus norvegicus [23] = test: Distribution of radio activity in tissues of unfasted male rats was measured at 30 min of time in blood after intravenous administration; format: ADME, organism-based; conditions: in vivo, 0.5 h
[24] = biological target: Sodium-dependent dopamine transporter (Rattus norvegicus, UniProt P23977); test: Inhibitory constant towards reuptake of [125I]-12 from dopamine transporter in rat striatal membranes; format: cell membranes, Membrane
Rattus norvegicus [25] = test: Distribution of radio activity in tissues of unfasted male rats was measured as regional uptake at 2 min of time in cortex after intravenous administration; format: ADME, organism-based; conditions: in vivo
Rattus norvegicus [26] = test: Distribution of radio activity in tissues of unfasted male rats was measured as regional uptake at 2 min of time in cerebellum after intravenous administration; format: ADME, organism-based; conditions: in vivo
Rattus norvegicus [27] = test: Distribution of radio activity in tissues of unfasted male rats was measured at 120 min of time in lung after intravenous administration; format: ADME, organism-based; conditions: in vivo, 2 h
Rattus norvegicus [28] = test: Distribution of radio activity in tissues of unfasted male rats was measured as regional uptake at 60 min of time in cortex after intravenous administration; format: ADME, organism-based; conditions: in vivo, 1 h
Rattus norvegicus [29] = test: Distribution of radio activity in tissues of unfasted male rats was measured at 2 min of time in blood after intravenous administration; format: ADME, organism-based; conditions: in vivo
Rattus norvegicus [30] = test: Distribution of radio activity in tissues of unfasted male rats was measured as regional uptake at 30 min of time in striatum after intravenous administration; format: ADME, organism-based; conditions: in vivo, 0.5 h
Rattus norvegicus [31] = test: Distribution of radio activity in tissues of unfasted male rats was measured at 60 min of time in blood after intravenous administration; format: ADME, organism-based; conditions: in vivo, 1 h

Chain of Sodium-dependent dopamine transporter (P23977 whole entry): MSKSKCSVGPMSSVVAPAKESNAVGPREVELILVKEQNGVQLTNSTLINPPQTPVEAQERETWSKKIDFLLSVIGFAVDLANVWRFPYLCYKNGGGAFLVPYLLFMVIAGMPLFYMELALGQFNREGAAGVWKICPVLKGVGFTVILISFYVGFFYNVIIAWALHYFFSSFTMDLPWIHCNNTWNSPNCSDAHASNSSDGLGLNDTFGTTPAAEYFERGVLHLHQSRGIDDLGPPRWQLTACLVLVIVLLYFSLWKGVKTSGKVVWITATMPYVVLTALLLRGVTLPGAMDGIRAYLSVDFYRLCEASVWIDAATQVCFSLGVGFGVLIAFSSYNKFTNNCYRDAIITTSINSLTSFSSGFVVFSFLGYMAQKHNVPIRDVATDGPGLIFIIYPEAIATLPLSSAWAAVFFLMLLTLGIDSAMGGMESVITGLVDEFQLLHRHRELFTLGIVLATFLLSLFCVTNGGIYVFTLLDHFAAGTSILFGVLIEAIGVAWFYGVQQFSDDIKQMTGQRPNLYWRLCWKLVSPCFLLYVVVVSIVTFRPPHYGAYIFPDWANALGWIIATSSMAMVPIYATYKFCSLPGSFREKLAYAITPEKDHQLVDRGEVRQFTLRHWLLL

## COC(=O)C1C(c2ccc(Cl)cc2)CC2CCC1N2C/C=C/I (stereo unspecified)
Rattus norvegicus [1]
  Injected dose/organ: 0.46%
Rattus norvegicus [2]
  Dose/g: 1.23%
Rattus norvegicus [3]
  Dose/g: 0.038%
Rattus norvegicus [4]
  Injected dose/organ: 23.9%
Rattus norvegicus [5]
  Dose/g: 0.23%
Rattus norvegicus [6]
  Injected dose/organ: 0.23%
Rattus norvegicus [7]
  Injected dose/organ: 11.77%
Rattus norvegicus [8]
  Injected dose/organ: 0.97%
Rattus norvegicus [9]
  Injected dose/organ: 0.13%
Rattus norvegicus [10]
  Injected dose/organ: 9.04%
Rattus norvegicus [11]
  Injected dose/organ: 1.44%
Rattus norvegicus [12]
  Dose/g: 0.84%
Rattus norvegicus [13]
  Injected dose/organ: 3.11%
Rattus norvegicus [14]
  Injected dose/organ: 23.76%
Rattus norvegicus [15]
  Injected dose/organ: 1.19%
Rattus norvegicus [16]
  Injected dose/organ: 0.28%
Rattus norvegicus [17]
  Injected dose/organ: 0.41%
Rattus norvegicus [18]
  Injected dose/organ: 12.14%
Rattus norvegicus [19]
  Injected dose/organ: 18.54%
Rattus norvegicus [20]
  Injected dose/organ: 0.12%
Rattus norvegicus [21]
  Injected dose/organ: 0.11%
Rattus norvegicus [22]
  Dose/g: 0.61%
Rattus norvegicus [23]
  Injected dose/organ: 7.12%
[24]
  Ki: 0.69 nM
Rattus norvegicus [25]
  Dose/g: 1.15%
Rattus norvegicus [26]
  Dose/g: 0.97%
Rattus norvegicus [27]
  Injected dose/organ: 0.31%
Rattus norvegicus [28]
  Dose/g: 0.08%
Rattus norvegicus [29]
  Injected dose/organ: 2.98%
Rattus norvegicus [30]
  Dose/g: 1.67%
Rattus norvegicus [31]
  Injected dose/organ: 5.24%
